From US20240116885A1, “BENZOTHIAZOLE AND QUINOLINE DERIVATIVES AND THEIR USE” (Shanghai Yao Yuan Biotechnology Co., Ltd., priority 2020, published 2024)
pIC50: −log10 of the molar value. Counter-ions that a name gives are not always drawn.

Key:
ALPK1 = ALPK1 (Homo sapiens (Human), UniProt Q96QP1); assay: ALPK1 in vitro kinase assay (HTRF, TIFA phosphorylation); format: biochemical; conditions: ADP-Heptose activated ALPK1
Description: ALPK1 kinase activity was measured in an in vitro assay using ADP-Heptose as the ALPK1 ligand and activator of its kinase activity and TIFA protein as the ALPK1 phosphorylation substrate. Since phosphorylated TIFA proteins oligomerize, Homogeneous Time-Resolved Fluorescence (HTRF) was used to measure protein:protein interaction between HA-tagged TIFA proteins as an indicator of TIFA phosphorylation.
In brief, dose-response studies were performed with HEK293 cells cultured in Dulbecco's Modified Eagle Medium (DMEM) supplemented 10% fetal bovine serum (FBS, Hyclone™) containing antibiotics (pen/strep, G418) in 384-well assay plates. Each well contained 0.1 mg TIFA, ALPK1 (2 nM final concentration in reaction mixture) and kinase buffer (100 mM of HEPES pH 7.4, 4 mM DTT, 40 mM MgCl2, 20 mM of β-Glycerol phosphate disodium salt, 0.4 mM of Na3VO4, 0.16 mg/mL). Titrations of the test compounds were prepared in dimethylsulphoxide (DMSO). The reaction was initiated by addition of ATP and ADP-Heptose.
For HTRF, samples were incubated with a Tb cryptate-labeled anti-HA antibody for capturing HA-tagged proteins according to the manufacturer's instructions (PerkinElmer™, CisBio™) and the fluorescence signal was quantified (Tecan Infinite F NANO+). HTRF signals were calculated as the HTRF ratio (ratio of fluorescence measured at 665 nm and 620 nm)×104 (thereby using the signal at 620 nm as an internal standard).
IC50 values were determined using 3- or 4-parameter logistic equation using GraphPad Prism version 6.00. The reference compound, A027, was used as a positive control for each plate.

[1] = system: ALPK1-dependent NFκB reporter gene activation; assay: NFκB gene reporter alkaline phosphatase assay in HEK293 G9 cells; format: cell-based; conditions: Homo sapiens; HEK293 G9 cells stimulated with D-glycero-D-manno-6-fluoro-heptose-1β-S-ADP
Description: An alkaline phosphatase reporter assay system was used to measure inhibition of ALPK1-dependent NFκB reporter gene activation. Briefly, HEK293 cells stably expressing an NF-kB reporter (referred to herein as “G9 cells”) were maintained in DMEM as described above. For the assay, cells were seeded into 96-well plates at a density of 10,000 cells/well in Freestyle™ 293 Expression Medium (ThermoFisher), and allowed to attach overnight. Cells were pretreated with serially diluted compounds for 30 min and then stimulated with D-glycero-D-manno-6-fluoro-heptose-1β-S-ADP. […] NFkB gene activation was detected using the chromogenic substrate, para-nitrophenyl phosphate (pNPP) according to the manufacturer's protocols (pNPP Phosphatase Assay, Beyotime Biotechnology).

T237M hALPK1 mutant = T237M hALPK1 mutant (Homo sapiens (Human), UniProt Q96QP1, T237M); assay: Inhibition of IL-8 secretion in HEK293 cells (A2) stably expressing T237M hALPK1 mutant; format: cell-based; conditions: 40 hours with compound, IL-8 ELISA, relative to wild-type HEK293 cells, read-out: Half maximal inhibitory concentration (IC50) of IL-8 secretion in cells expressing T237M mutant
Description: (§1) Activating mutations in ALPK1 are associated with diseases and disorders such as cancer, spiroandenoma, spiroandenocarcinoma, ROSAH syndrome, and PFAPA syndrome. We conducted further experiments to evaluate the ability of representative compounds to inhibit ALPK1 in the context of two activating mutations, T237M and V1092A. In preliminary experiments we determined that IL-8 protein secretion was elevated in cells transiently transfected with human ALPK1 expression vectors containing each of these activating mutations. Accordingly, we used IL-8 secretion as an indicator of activated ALPK1 inhibition in cells expressing these mutations.
(§2) HEK293 cells were cultured as described above prior to transient transfection with either empty vector or an expression vector encoding (i) human ALPK1 (hALPK1), (ii) hALPK1 with the T237M activating mutation (hALPK1-T237M) (iii) hALPK1 with the V1092A activating mutation (hALPK1-V1092A), or (iv) a kinase dead ALPK1 mutant (hALPK1-T237M-D1194S). Transfection was performed according to manufacturer's protocols (Lipofectamine™ 3000, ThermoFisher). Transfected cells were selected, seeded onto 96-well plates and treated with serial dilutions of the test compounds for 6.5 hr. Following treatment, cell viability was determined using a luminescent cell viability assay (Cell Counting-Lite Assay or “CCL Assay” from Vazyme Biotech Co., Ltd.) and cell free supernatants were collected and analyzed for IL-8 protein by IL-8 ELISA as described above. […] As shown in the figure, very little IL-8 was detectable in cells transfected with any of the empty vector, hALPK1, or the kinase dead hALPK1 mutant. In contrast, both of the activating mutations in hALPK1 induced significant IL-8 secretion.
Next, we tested a representative set of compounds for inhibition of IL-8 secretion in cells expressing each of the activating ALPK1 mutants, T237M and V1092A. […] For the T237M mutant study, we produced an HEK293 cell line (“A2”) stably expressing the T237M hALPK1 mutant. A2 cells were cultured in the presence of test compound for 40 hours total. Fresh medium and compound were added at 24 hours. Cell viability and IL-8 secretion were determined 16 hours after the second addition of compound, using the CCL assay and IL-8 ELISA as described above.

hALPK1-V1092A = hALPK1-V1092A (Homo sapiens (Human), UniProt Q96QP1, V1092A); assay: Inhibition of IL-8 secretion in HEK293 cells transiently transfected with hALPK1-V1092A; format: cell-based; conditions: transient transfection, 24 hours with compound, IL-8 ELISA, relative to wild-type HEK293 cells; read-out: Half maximal inhibitory concentration (IC50) of IL-8 secretion in cells expressing V1092A mutant
Description: as §1, §2
For the V1092A mutant study shown in Table 4, HEK293 cells were transiently transfected with hALPK1-V1092A or hALPK1 (wildtype) expression vectors and then treated with test compounds for 24 hours. Fresh medium and compound were added at 18 hours.

[2] = system: Female MRL/MpJ-faslpr/J mice; assay: Efficacy study in SLE animal model; format: in vivo, mouse; conditions: 50 mg/kg PO QD
Description: A mouse model of systemic lupus erythematosus (SLE) was used to evaluate the ability of ALPK1 inhibitors to treat this condition. Female MRL/MpJ-faslpr/J mice were treated with test compound (T007) for 9 weeks. At about 13 weeks of age (study day 0), female mice were randomized into two treatment groups of 10 mice per group, and daily (QD) oral (PO) treatment with vehicle (5% PEG400, 95% methylcellulose [MC]) or the test compound, T007 (50 mg/kg) was initiated. The animals were euthanized for necropsy and tissue collection at age 22 weeks.

SD rat = assay: Efficacy study in sepsis induced acute kidney injury animal model (cecal ligation and puncture); format: in vivo; conditions: 20 mg/kg 2 hours prior to surgery, 24 hours post-surgery
Description: Polymicrobial sepsis induced by cecal ligation and puncture (CLP) is the most frequently used model because it closely resembles the progression and characteristics of human sepsis. We used this model system to evaluate the effects of the compound T007 in sepsis. Briefly, the SD rat cecum was ligated with sterile silk thread, and then cecum was punctured twice with a needle, gently squeezed to express a small amount of fecal material, then the abdominal incision was closed. The test compound, T007 (20 mg/kg) was administered 2 hours prior to the surgery. 24 hours post-surgery, survival was recorded, plasma was collected for MCP-1 analysis, and kidneys were collected for gene expression analysis by Q-PCR.

[3] = kidney histopathology (right kidneys), vs vehicle

Sequence of T237M hALPK1 mutant (Q96QP1 whole entry T237M): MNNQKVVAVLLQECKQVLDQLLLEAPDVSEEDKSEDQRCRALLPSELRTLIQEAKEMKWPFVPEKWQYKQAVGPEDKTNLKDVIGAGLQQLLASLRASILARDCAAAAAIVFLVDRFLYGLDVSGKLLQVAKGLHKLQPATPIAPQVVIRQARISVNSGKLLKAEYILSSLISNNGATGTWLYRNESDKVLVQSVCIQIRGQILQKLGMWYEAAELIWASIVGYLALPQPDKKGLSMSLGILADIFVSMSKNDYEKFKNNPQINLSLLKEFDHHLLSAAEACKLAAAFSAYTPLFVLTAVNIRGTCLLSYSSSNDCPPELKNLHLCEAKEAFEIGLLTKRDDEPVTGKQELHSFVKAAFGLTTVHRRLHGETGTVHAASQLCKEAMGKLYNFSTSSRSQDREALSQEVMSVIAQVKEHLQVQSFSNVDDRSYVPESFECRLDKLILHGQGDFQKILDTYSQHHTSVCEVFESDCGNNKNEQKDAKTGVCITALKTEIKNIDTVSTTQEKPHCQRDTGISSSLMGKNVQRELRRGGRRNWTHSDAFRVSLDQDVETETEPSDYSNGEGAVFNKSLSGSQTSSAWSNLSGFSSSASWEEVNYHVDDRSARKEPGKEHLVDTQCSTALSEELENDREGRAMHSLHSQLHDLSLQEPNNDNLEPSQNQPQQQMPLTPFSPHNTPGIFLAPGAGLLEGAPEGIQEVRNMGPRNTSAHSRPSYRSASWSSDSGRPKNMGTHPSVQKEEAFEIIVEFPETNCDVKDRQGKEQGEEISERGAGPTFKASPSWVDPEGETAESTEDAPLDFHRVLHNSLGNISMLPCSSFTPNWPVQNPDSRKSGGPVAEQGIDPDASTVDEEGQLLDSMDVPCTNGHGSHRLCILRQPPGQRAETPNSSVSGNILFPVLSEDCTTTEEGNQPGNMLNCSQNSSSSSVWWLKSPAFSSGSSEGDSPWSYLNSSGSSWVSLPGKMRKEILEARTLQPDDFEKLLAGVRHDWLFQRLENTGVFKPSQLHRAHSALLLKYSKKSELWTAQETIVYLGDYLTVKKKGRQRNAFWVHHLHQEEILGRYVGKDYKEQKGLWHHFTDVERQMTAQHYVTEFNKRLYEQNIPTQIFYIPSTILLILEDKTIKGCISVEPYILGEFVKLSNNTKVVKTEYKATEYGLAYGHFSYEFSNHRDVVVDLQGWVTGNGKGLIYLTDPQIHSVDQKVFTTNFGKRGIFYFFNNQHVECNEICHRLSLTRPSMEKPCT
Sequence of ALPK1 (Q96QP1 whole entry): as the sequence (Q96QP1 whole entry T237M) above, with M237T counted along it
Sequence of hALPK1-V1092A (Q96QP1 whole entry V1092A): as the sequence (Q96QP1 whole entry T237M) above, with M237T, V1092A counted along it

SMILES | pIC50 (ALPK1) | pIC50 [1] | pIC50 (T237M hALPK1 mutant) | pIC50 (hALPK1-V1092A) | Effects on SLE by proteinuria, serum anti-dsDNA antibody levels and kidney histopathology ([2]; age 13 to 22 weeks) | Urine protein score reduction in AUC ([2]; age 13 to 22 weeks, vs vehicle, p=0.100) [%] | Crescent scores reduction [2, 3] [%] | Glomerulus diameters reduction [2, 3] [%] | Protein cast scores reduction [2, 3] [%] | Urine protein scores reduction ([2]; mouse age 21 weeks, vs vehicle) [%] | Summed kidney scores reduction ([2]; vs vehicle) [%] | Survival rate (SD rat) | Plasma MCP-1 concentration by ELISA (SD rat; p<0.001 vs CLP-Vehicle) | Kidney proinflammatory gene expression (IL6, TNFa, IL-1b, CCl2, KC) by Q-PCR (SD rat; p<0.05 vs CLP-Vehicle)
C#Cc1cccc2sc(NC(=O)c3c(F)cc(N4CCNCC4)cc3F)nc12 [Compound T007, N-(4-ethynylbenzo[d]thiazol-2-yl)-2,6-difluoro-4-(piperazin-1-yl)benzamide] | 8.40 | 6.33 | 7.17 | 6.39 | statistically significant beneficial effects | 34 | 62 | 38 | 70 | 55 | 34 | improved the survival rate | improved | inhibited
COc1cccc2sc(NC(=O)c3c(F)cc(N4CCNCC4)cc3F)nc12 [Compound T017, 2,6-difluoro-N-(4-methoxybenzo[d]thiazol-2-yl)-4-(piperazin-1-yl)benzamide hydrochloride] | 7.85 | 6.16 | 5.83 | 5.30 | – | – | – | – | – | – | – | – | – | –
O=C(Nc1nc2c(Br)cccc2s1)c1c(F)cc(N2CCNCC2)cc1F [Compound T019, N-(4-bromobenzo[d]thiazol-2-yl)-2,6-difluoro-4-(piperazin-1-yl)benzamide hydrochloride] | 7.96 | 6.12 | 6.18 | 5.50 | – | – | – | – | – | – | – | – | – | –
C#Cc1cccc2sc(NC(=O)c3c(F)cc(N4CCN(C)CC4)cc3F)nc12 [Compound T047, N-(4-ethynylbenzo[d]thiazol-2-yl)-2,6-difluoro-4-(4-methylpiperazin-1-yl)benzamide] | 7.89 | 6.09 | 6.20 | 5.74 | – | – | – | – | – | – | – | – | – | –
C#Cc1cccc2sc(NC(=O)c3c(F)cc(N4CCNC[C@@H]4C)cc3F)nc12 [Compound T054, (S)-N-(4-ethynylbenzo[d]thiazol-2-yl)-2,6-difluoro-4-(2-methylpiperazin-1-yl)benzamide] | 7.44 | 6.57 | 6.65 | 6.65 | – | – | – | – | – | – | – | – | – | –
C#Cc1cccc2sc(NC(=O)c3c(F)ccc(N4CCNCC4)c3F)nc12 [Compound T060, N-(4-ethynylbenzo[d]thiazol-2-yl)-2,6-difluoro-3-(piperazin-1-yl)benzamide] | 7.36 | 5.90 | 5.67 | 5.27 | – | – | – | – | – | – | – | – | – | –
C#Cc1cc(F)cc2sc(NC(=O)c3c(F)ccc(N4CCNCC4)c3F)nc12 [Compound T064, N-(4-ethynyl-6-fluorobenzo[d]thiazol-2-yl)-2,6-difluoro-3-(piperazin-1-yl)benzamide] | 7.29 | 5.99 | 5.77 | – | – | – | – | – | – | – | – | – | – | –
